# From patent US20210093645A1, “COMBINATION ANTI CANCER THERAPY WITH AN IAP ANTAGONIST AND AN ANTI PD-1 MOLECULE” (Debiopharm International S.A., priority 2017, published 2021)
# “Also recorded” adds a separate entry of the source. Numbered stars: 1 amine (or outer) side, 2 acyl side, 3 side chain; on linkers, the order of the positions; unused ones are H or OH. Bridge positions count the residues as written; N and C are the ends. Square brackets hold non-standard residues; d marks the D form. Peptide text beside a SMILES is read from it. I, II: the chains in the order shown. Hexamethylenediamine = C(CCCN[*:2])CCN[*:1]; Dip = N[C@H](C(=O)O)C(c1ccccc1)c1ccccc1; Chg = N[C@H](C(=O)O)C1CCCCC1; NMeA = CN[C@@H](C)C(=O)O
# Columns and labels:
# antigen-presenting cells = settings: cited from earlier work
# [1] = in vivo; cited from earlier work
# T-cell = settings: in the context of a primary T-cell receptor stimulus; cited from earlier work
# [2] = test system: syngeneic colon carcinoma cell line MC-38; experiment: MC38 syngeneic tumor model, birinapant or LCL161 pretreatment then anti-PD-L1 (Example 3); assay type: in vivo, C57BL/6J mice
# Experimental: 72 adult female C57BL/6J mice (obtained from Shanghai Lingchang Bio-Technology Co.) were inoculated subcutaneously at the right lower flank with 1×10^6 cells of the syngeneic colon carcinoma cell line MC-38 in 0.1 ml of PBS. Tumor volumes were measured three times weekly in two dimensions using a caliper, and the volume was expressed in mm^3 using the formula: V=(L×W×W)/2, where V is tumor volume, L is tumor length (the longest tumor dimension) and W is tumor width (the longest tumor dimension perpendicular to L). All animals were randomly allocated to the 9 different study groups with a mean tumor size of 52 mm^3 based on the “Matched distribution” randomization method (StudyDirector™ software, version 3.1.399.19) and treatments started (denoted as day 1). Dosing as well as tumor and body weight measurement were conducted in a Laminar Flow Cabinet.
# On day 1, part of the animals received either a 1 week pretreatment consisting of i.p. SMAC mimetic birinapant at a dose of 30 mg/kg, or its vehicle, in a biweekly schedule as indicated in Table 2. The other part of the animals received either a 1 week pretreatment consisting of p.o. SMAC mimetic LCL161 at a dose of 75 mg/kg, or its vehicle, in a biweekly schedule as indicated in Table 2.
# On day 8, vehicle or SMAC mimetic pretreated animals were then further treated until study end with either biweekly i.p. 10 mg/kg of control antibody rlgG2b (Clone: LTF-2, BioXcell), or biweekly i.p. 10 mg/kg of anti-PD-L1 antibody (Mouse surrogate antibody, anti-mouse PD-L1, Clone: 10F.9G2, BioXcell). 1 group of animals that had received 1 week of birinapant pretreatment, and 1 group of animals that had received 1 week of LCL161 pretreatment, were each continued on the respective SMAC mimetic during the period of anti-PD-L1 treatment until study end.
# melanoma = melanoma patients; cited from earlier work
# RCC = RCC patients; cited from earlier work
# [3] = test system: advanced treatment-refractory NSCLC; settings: advanced treatment-refractory NSCLC patients; cited from earlier work
compound,measurement,setting,value
CN[C@@H](C)C(=O)N[C@H](C(=O)N1CCC[C@H]1C(=O)N[C@H](C(=O)NCCCCCCNC(=O)[C@@H](NC(=O)[C@@H]1CCCN1C(=O)[C@@H](NC(=O)[C@H](C)NC)C1CCCCC1)C(c1ccccc1)c1ccccc1)C(c1ccccc1)c1ccccc1)C1CCCCC1 [BV6] (I: H-[NMeA][Chg]P[Dip] / II: H-[NMeA][Chg]P[Dip]; linker I:C-II:C via Hexamethylenediamine),"function of antigen-presenting cells (dendritic cell maturation, type-II to type-I macrophage conversion)",antigen-presenting cells,modulate the function of antigen-presenting cells
CN[C@@H](C)C(=O)N[C@H](C(=O)N1CC[C@H]2CCN(CCc3ccccc3)C[C@H]21)C1CCCCC1 [LBW242],efficacy in a prophylactic cancer vaccine model,[1],enhanced efficacy
same,"anti-tumor immune responses (T-cell proliferation, co-stimulation, activation)",T-cell,increase anti-tumor immune responses
CN[C@@H](C)C(=O)N[C@H](C(=O)N1CCC[C@H]1c1nc(C(=O)c2ccc(F)cc2)cs1)C1CCCCC1 [LCL161],anti-cancer effect (median tumor volume),"[2]; LCL161 75 mg/kg p.o. BIW 1 week pretreatment alone, then control antibody rlgG2b (group 7)",modest anti-cancer effect
same,anti-cancer effect (median tumor volume),"[2]; LCL161 75 mg/kg p.o. BIW 1 week pretreatment, then anti-PD-L1 10 mg/kg i.p. BIW (group 8)",small additional benefit to LCL161 pretreatment alone; also recorded: sensitizes MC38 tumors to a subsequent treatment with an anti-PD-L1 antibody
same,anti-cancer effect (median tumor volume),"[2]; LCL161 pretreatment, then anti-PD-L1 plus continued LCL161 (group 9)",significant additional benefit
CC[C@H](NC(=O)[C@H](C)NC)C(=O)N1C[C@@H](O)C[C@H]1Cc1c(-c2[nH]c3cc(F)ccc3c2C[C@@H]2C[C@H](O)CN2C(=O)[C@H](CC)NC(=O)[C@H](C)NC)[nH]c2cc(F)ccc12 [birinapant],anti-cancer effect (median tumor volume),"[2]; birinapant 30 mg/kg i.p. BIW 1 week pretreatment alone, then control antibody rlgG2b (group 2)",modest anti-cancer effect
same,anti-cancer effect (median tumor volume),"[2]; birinapant 30 mg/kg i.p. BIW 1 week pretreatment, then anti-PD-L1 10 mg/kg i.p. BIW (group 4)",singificant anti-cancer effect; also recorded: sensitizes MC38 tumors to a subsequent treatment with an anti-PD-L1 antibody
same,anti-cancer effect (median tumor volume),"[2]; birinapant pretreatment, then anti-PD-L1 plus continued birinapant (group 5), compared with group 4",small additional benefit
same,"function of antigen-presenting cells (dendritic cell maturation, type-II to type-I macrophage conversion)",antigen-presenting cells,modulate the function of antigen-presenting cells
Nivolumab: fully human IgG4 anti-PD-1 monoclonal antibody from Bristol-Myers Squibb/Ono Pharmaceuticals,Objective response rate,melanoma,31%
same,Overall survival,melanoma,16.8 months
same,Objective response rate,RCC,20%
same,Overall survival,RCC,22.4 months
same,Objective response rate,[3],17%
same,Overall survival,[3],9.9 months
